Measurements: patent publication US7973061B2, “Anaplastic lymphoma kinase modulators and methods of use” (Exelixis, Inc., priority 2004, dated 2011)
pIC50: −log10 of the molar value.

Molecular target: T1, ALK (baculovirus expressed human ALK kinase domain F1098-K1410) (Homo sapiens, UniProt Q9UM73)
T1 construct: human ALK kinase domain F1098-K1410; made in house
Assay: biochemical
Settings: 1 μM ATP, 4 μM poly-AEKY, 12 nM ALK, 2 hours at ambient temperature; read-out: ALK IC50
Method: Kinase activity and compound inhibition are investigated using one or more of the three assay formats described below. The ATP concentrations for each assay are selected to be close to the Michaelis-Menten constant (KM) for each individual kinase. Dose-response experiments are performed at 10 different inhibitor concentrations in a 384-well plate format. […] Y=Min+(Max−Min)/(1+(X/IC50)^H) Equation (2) Luciferase-Coupled Chemiluminescent Kinase Assay
ALK biochemical activity was assessed using a Luciferase-Coupled Chemiluminescent Kinase assay (LCCA) format in which kinase activity was measured as the percent ATP remaining following the kinase reaction. ATP remaining after the kinase reaction was detected by luciferase-luciferin-coupled chemiluminescence. […] The mixture was incubated at ambient temperature for 2 hours after which 20 μL luciferase-luciferin mix was added and the chemiluminescent signal read using a Wallac Victor^2 reader. […] Consumption of ATP by ALK can be quantified and utilized as a measure of inhibition of ALK activity by compounds described herein. By employing serial dilutions of compounds to be tested, the ability of test compounds to inhibit ALK activity can be determined.

T1 sequence (Q9UM73 1098-1410): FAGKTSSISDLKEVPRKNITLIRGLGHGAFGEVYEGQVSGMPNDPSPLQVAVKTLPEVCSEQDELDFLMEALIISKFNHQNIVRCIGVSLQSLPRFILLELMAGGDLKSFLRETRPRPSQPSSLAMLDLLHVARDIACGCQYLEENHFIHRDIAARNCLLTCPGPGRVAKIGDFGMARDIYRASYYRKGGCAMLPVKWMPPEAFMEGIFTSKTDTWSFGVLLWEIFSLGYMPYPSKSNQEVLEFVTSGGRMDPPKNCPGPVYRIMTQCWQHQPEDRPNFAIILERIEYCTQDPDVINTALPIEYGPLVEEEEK

Row | pIC50 | Compound
1 | 6.30 to 7.30 | O=C(COc1ccc(OC(F)(F)F)cc1)NCc1nc(C(=O)NC2CCCc3ccccc32)cs1 (stereo not drawn) [Entry 199, N-(1,2,3,4-tetrahydronaphthalen-1-yl)-2-({[({4-[(trifluoromethyl)oxy]phenyl}oxy)acetyl]amino}methyl)-1,3-thiazole-4-carboxamide]
2 | 6.30 to 7.30 | NC(=O)[C@H](Cc1ccccc1)NC(=O)c1csc(CNC(=O)COc2ccc(OC(F)(F)F)cc2)n1 [Entry 188, Nalpha-{[2-({[({4-[(trifluoromethyl)oxy]phenyl}oxy)acetyl]amino}methyl)-1,3-thiazol-4-yl]carbonyl}-L-phenylalaninamide]
3 | 6.30 to 7.30 | O=C(COc1ccc(OC(F)(F)F)cc1)NCc1nc(C(=O)NCCSCc2c(Cl)cccc2Cl)cs1 [Entry 93, N-(2-{[(2,6-dichlorophenyl)methyl]thio}ethyl)-2-({[({4-[(trifluoromethyl)oxy]phenyl}oxy)acetyl]amino}methyl)-1,3-thiazole-4-carboxamide]
4 | 5.70 to 6.30 | CC1CN(C(=O)c2csc(CNC(=O)COc3ccc(OC(F)(F)F)cc3)n2)CCN1c1ccccc1 (stereo not drawn) [Entry 253, N-({4-[(3-methyl-4-phenylpiperazin-1-yl)carbonyl]-1,3-thiazol-2-yl}methyl)-2-({4-[(trifluoromethyl)oxy]phenyl}oxy)acetamide]
5 | 6.30 to 7.30 | COc1cccc(CNC(=O)c2csc(CNC(=O)Nc3ccc(C(C)C)cc3)n2)c1OC [Entry 78, N-{[2,3-bis(methyloxy)phenyl]methyl}-2-{[({[4-(1-methylethyl)phenyl]amino}carbonyl)amino]methyl}-1,3-thiazole-4-carboxamide]
6 | 6.30 to 7.30 | COc1cccc(OC)c1CNC(=O)c1csc(CNC(=O)COc2ccc(OC(F)(F)F)cc2)n1 [Entry 106, N-{[2,6-bis(methyloxy)phenyl]methyl}-2-({[({4-[(trifluoromethyl)oxy]phenyl}oxy)acetyl]amino}methyl)-1,3-thiazole-4-carboxamide]
7 | 6.30 to 7.30 | O=C(COc1ccc(OC(F)(F)F)cc1)NCc1nc(C(=O)NCCSCc2ccco2)cs1 [Entry 71, N-{2-[(furan-2-ylmethyl)thio]ethyl}-2-({[({4-[(trifluoromethyl)oxy]phenyl}oxy)acetyl]amino}methyl)-1,3-thiazole-4-carboxamide]
8 | 5.70 to 6.30 | COCC(C)NC(=O)c1csc(CNC(=O)COc2ccc(OC(F)(F)F)cc2)n1 (stereo not drawn) [Entry 268, N-[1-methyl-2-(methyloxy)ethyl]-2-({[({4-[(trifluoromethyl)oxy]phenyl}oxy)acetyl]amino}methyl)-1,3-thiazole-4-carboxamide]
9 | 6.30 to 7.30 | O=C(COc1ccc(OC(F)(F)F)cc1)NCc1nc(C(=O)NCC2CCCCC2)cs1 [Entry 172, N-(cyclohexylmethyl)-2-({[({4-[(trifluoromethyl)oxy]phenyl}oxy)acetyl]amino}methyl)-1,3-thiazole-4-carboxamide]
10 | 6.30 to 7.30 | COc1ccccc1CNC(=O)c1csc(CNC(=O)c2cccnc2Oc2ccc(Cl)cc2)n1 [Entry 198, 2-[(4-chlorophenyl)oxy]-N-({4-[({[2-(methyloxy)phenyl]methyl}amino)carbonyl]-1,3-thiazol-2-yl}methyl)pyridine-3-carboxamide]
11 | 6.30 to 7.30 | CCCCC(CC)CNC(=O)c1csc(CNC(=O)COc2ccc(OC(F)(F)F)cc2)n1 (stereo not drawn) [Entry 200, N-(2-ethylhexyl)-2-({[({4-[(trifluoromethyl)oxy]phenyl}oxy)acetyl]amino}methyl)-1,3-thiazole-4-carboxamide]
12 | < 5.70 | O=C(COc1ccc(OC(F)(F)F)cc1)NCc1nc(C(=O)NCCc2cccc(Cl)c2)c[nH]1 [Entry 306, N-[2-(3-chlorophenyl)ethyl]-2-({[({4-[(trifluoromethyl)oxy]phenyl}oxy)acetyl]amino}methyl)-1H-imidazole-4-carboxamide]
13 | 5.70 to 6.30 | CCCC1CCN(C(=O)c2csc(CNC(=O)COc3ccc(OC(F)(F)F)cc3)n2)CC1 [Entry 245, N-({4-[(4-propylpiperidin-1-yl)carbonyl]-1,3-thiazol-2-yl}methyl)-2-({4-[(trifluoromethyl)oxy]phenyl}oxy)acetamide]
14 | 6.30 to 7.30 | Cc1ccc(CNC(=O)c2csc(CNC(=O)COc3ccc(OC(F)(F)F)cc3)n2)cc1 [Entry 170, N-[(4-methylphenyl)methyl]-2-({[({4-[(trifluoromethyl)oxy]phenyl}oxy)acetyl]amino}methyl)-1,3-thiazole-4-carboxamide]
15 | 6.30 to 7.30 | COc1cccc(CNC(=O)c2csc(CNC(=O)COc3ccc(C(C)C)cc3)n2)c1OC [Entry 125, N-{[2,3-bis(methyloxy)phenyl]methyl}-2-{[({[4-(1-methylethyl)phenyl]oxy}acetyl)amino]methyl}-1,3-thiazole-4-carboxamide]
16 | 5.70 to 6.30 | CC1CC(C)CN(C(=O)c2csc(CNC(=O)COc3ccc(OC(F)(F)F)cc3)n2)C1 (stereo not drawn) [Entry 282, N-({4-[(3,5-dimethylpiperidin-1-yl)carbonyl]-1,3-thiazol-2-yl}methyl)-2-({4-[(trifluoromethyl)oxy]phenyl}oxy)acetamide]
17 | > 7.30 | CC(C)c1ccc(NC(=O)NCc2nc(C(=O)NCCc3ccccc3F)cs2)cc1 [Entry 27, N-[2-(2-fluorophenyl)ethyl]-2-{[({[4-(1-methylethyl)phenyl]amino}carbonyl)amino]methyl}-1,3-thiazole-4-carboxamide]
18 | 5.70 to 6.30 | O=C(COc1ccc(OC(F)(F)F)cc1)NCc1nc(C(=O)NCCc2c[nH]c3ccccc23)co1 [Entry 251, N-[2-(1H-indol-3-yl)ethyl]-2-({[({4-[(trifluoromethyl)oxy]phenyl}oxy)acetyl]amino}methyl)-1,3-oxazole-4-carboxamide]
19 | 5.70 to 6.30 | O=C(COc1ccc(OC(F)(F)F)cc1)NCc1nc(C(=O)NCCc2ccncc2)co1 [Entry 219, N-(2-pyridin-4-ylethyl)-2-({[({4-[(trifluoromethyl)oxy]phenyl}oxy)acetyl]amino}methyl)-1,3-oxazole-4-carboxamide]
20 | 5.70 to 6.30 | O=C(COc1ccc(OC(F)(F)F)cc1)NCc1nc(C(=O)N2CCC3CCCCC3C2)cs1 (stereo not drawn) [Entry 294, N-{[4-(octahydroisoquinolin-2(1H)-ylcarbonyl)-1,3-thiazol-2-yl]methyl}-2-({4-[(trifluoromethyl)oxy]phenyl}oxy)acetamide]
21 | 6.30 to 7.30 | O=C(COc1ccc(OC(F)(F)F)cc1)NCc1nc(C(=O)N2CCN(c3c(Cl)cncc3Cl)CC2)cs1 [Entry 66, N-[(4-{[4-(3,5-dichloropyridin-4-yl)piperazin-1-yl]carbonyl}-1,3-thiazol-2-yl)methyl]-2-({4-[(trifluoromethyl)oxy]phenyl}oxy)acetamide]
22 | 6.30 to 7.30 | CCCCNC(=O)c1csc(CNC(=O)COc2ccc(OC(F)(F)F)cc2)n1 [Entry 177, N-butyl-2-({[({4-[(trifluoromethyl)oxy]phenyl}oxy)acetyl]amino}methyl)-1,3-thiazole-4-carboxamide]
23 | 6.30 to 7.30 | Cc1ccc(Cl)cc1CNC(=O)c1csc(CNC(=O)COc2ccc(OC(F)(F)F)cc2)n1 [Entry 39, N-[(5-chloro-2-methylphenyl)methyl]-2-({[({4-[(trifluoromethyl)oxy]phenyl}oxy)acetyl]amino}methyl)-1,3-thiazole-4-carboxamide]
24 | < 5.70 | NCc1nc(C(=O)NCCc2cccc(Cl)c2)co1 [Entry 307, 2-(aminomethyl)-N-[2-(3-chlorophenyl)ethyl]-1,3-oxazole-4-carboxamide]
